Test results published in PMC3306470 (ACS chemical biology, 2012).

Assays:
PARG [1] = assay: PARG in vitro assay; conditions: for PARG inhibition: 0.5 h incubation with 32P-PAR
ß-lactamase = assay: ß-Lactamase assay
PARG [2] = assay: PARG in vitro assay under the original salicylanilide conditions; conditions: 10 μM; phosphate buffer, 5 min; both in the absence and presence of 0.1% Triton X-100
[3] = target: endogenous PARG in whole cell lysate generated from mouse embryonic fibroblasts (MEFs) (Mus musculus, UniProt O88622); assay: Processing of 32P-PAR by MEF whole cell lysate; type: biochemical; conditions: 25 μM, MEF lysate 1.5 μg
PARG [4] = conditions: cited from earlier work
[5] = not told; cited from earlier work

Chain of endogenous PARG in whole cell lysate generated from mouse embryonic fibroblasts (MEFs) (O88622 whole entry): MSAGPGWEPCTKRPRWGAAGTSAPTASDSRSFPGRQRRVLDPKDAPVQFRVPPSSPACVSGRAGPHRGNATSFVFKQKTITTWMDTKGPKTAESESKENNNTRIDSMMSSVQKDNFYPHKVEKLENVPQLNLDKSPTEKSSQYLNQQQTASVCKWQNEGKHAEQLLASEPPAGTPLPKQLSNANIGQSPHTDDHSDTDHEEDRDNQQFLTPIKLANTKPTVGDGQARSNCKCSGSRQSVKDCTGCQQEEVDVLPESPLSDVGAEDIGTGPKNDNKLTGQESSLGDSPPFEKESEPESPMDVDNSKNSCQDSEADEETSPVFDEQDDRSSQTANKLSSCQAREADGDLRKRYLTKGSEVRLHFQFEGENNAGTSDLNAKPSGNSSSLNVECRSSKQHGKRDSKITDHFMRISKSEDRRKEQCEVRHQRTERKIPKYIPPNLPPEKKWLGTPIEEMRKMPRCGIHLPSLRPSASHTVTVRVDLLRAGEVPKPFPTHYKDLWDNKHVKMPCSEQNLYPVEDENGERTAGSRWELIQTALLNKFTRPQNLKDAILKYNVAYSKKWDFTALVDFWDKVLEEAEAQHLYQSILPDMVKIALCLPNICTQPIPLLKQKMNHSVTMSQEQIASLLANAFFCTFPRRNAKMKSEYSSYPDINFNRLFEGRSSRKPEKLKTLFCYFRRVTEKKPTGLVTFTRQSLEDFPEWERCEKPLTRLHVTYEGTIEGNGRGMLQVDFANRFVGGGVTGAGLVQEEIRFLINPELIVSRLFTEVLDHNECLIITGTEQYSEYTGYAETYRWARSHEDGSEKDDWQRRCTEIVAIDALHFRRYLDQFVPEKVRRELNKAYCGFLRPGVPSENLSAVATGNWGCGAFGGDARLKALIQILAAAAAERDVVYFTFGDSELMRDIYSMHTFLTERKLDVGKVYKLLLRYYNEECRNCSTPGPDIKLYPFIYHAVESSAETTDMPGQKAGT

Structure (SMILES) | effect of detergent on inhibition of PARG (PARG [1]; compound 50 μM, presence or absence of 0.1% Triton X-100, 2 h) | inhibition of ß-lactamase (ß-lactamase; 50 μM, absence of detergent) [%] | inhibition of ß-lactamase in the presence of detergent (ß-lactamase; 5-50 μM, 0.1% Triton X-100) [%] | PARG inhibition (PARG [1]; 0.5 μM) | PARG inhibition (PARG [1]; 25 μM) [%] | PARG inhibition after prolonged incubation (PARG [1]; 0.5 – 25 μM, 2 h incubation with 32P-PAR) | PARG inhibition (PARG [2]) | intact PAR at 60 min [3] | partial inhibition of PARG (PARG [4]) | IC50 (PARG [4]; read-out: IC50 for PARG inhibition, literature value) [nM] | cell permeability [5]
Nc1c(/N=N/c2ccc(-c3ccc(/N=N/c4cc(S(=O)(=O)O)c5ccccc5c4N)cc3)cc2)cc(S(=O)(=O)O)c2ccccc12 [Congo Red] | complete loss of inhibition | 100 | < 10 | – | – | – | – | – | – | – | –
Nc1ncnc2c1ncn2[C@@H]1O[C@H](CO[P@](=O)(O)O[P@@](=O)(O)OC[C@H]2NC[C@H](O)[C@@H]2O)[C@@H](O)[C@H]1O [ADP-HPD, Adenosine diphosphate (hydroxymethyl)pyrrolidinediol] | – | – | – | partially inhibited | 67 | only minimal PARG inhibition | complete inhibition | approx. 80% | partial inhibition of PARG | 120 | lack of cell permeability
